Data published in patent US7803801B2, “Aminopyridine compounds having Syk inhibitory activity” (Japan Tobacco, Inc., priority 2005, dated 2010).
Counter-ions that a name gives are not always drawn. Like-named read-outs stand apart in the source and are kept apart here.

Legend:
[1] = molecular target: GST-Syk Full Protein (human) (Homo sapiens, UniProt P43405); assay: Syk kinase inhibition test (HTRF method); type: biochemical
Method in brief: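 Human GST-Syk full-length (6.4 nM) phosphorylated biotin-EDPDYEWPSA-NH2 (250 nM) with 100 μM ATP in HEPES pH 7.0/MgCl2 buffer, 2% DMSO, 30 min at room temperature. EDTA stop, then HTRF detection (streptavidin-XL665, Eu anti-phosphotyrosine) after 1 h; 665/620 ratio read.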

[2] = tested on: cultured human mast cells; assay: Degranulation inhibition test using cultured human mast cells (IgE cross-linking, β-Hexosaminidase release); type: cell-based; conditions: Mast cell, cultured human mast cells, read-out: human degranulation ave. IC50
Method in brief: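 CD34+ cord-blood cells cultured ≥8 weeks with SCF/IL-6/IL-3; FcεRI primed 5 days with rhIL-4 (1 ng/mL) and hIgE (0.5 μg/mL). Compound (0.1% DMSO) preincubated 10 min at 37 °C, then anti-IgE (final 10 μg/mL) 30 min; released β-hexosaminidase read at 405 nm versus total lysate, IC50 (M).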

[3] = Tables 1-x, compounds A, read-out: sykHTRF ave IC50
[4] = Tables 2-x, thiophene compounds B, read-out: sykHTRK ave IC50
[5] = Tables 2-x, thiophene compounds B
[6] = HTRF, 100 μM ATP, 30 min room temperature, average, read-out: sykHTRF ave IC50
[7] = anti-hIgE stimulation, β-Hexosaminidase index, average

| SMILES | IC50 [1, 3] [nM] | IC50 ([2]; Tables 1-x, compounds A) [nM] | IC50 [1, 6] [nM] | IC50 [2, 7] [nM] | other results |
| --- | --- | --- | --- | --- | --- |
| Cc1ccnc(Nc2cccc(-c3cnc(COc4ccc(C(=O)O)cc4)s3)n2)c1 [Compound A-605, 4-{5-[6-(4-methylpyridin-2-ylamino)pyridin-2-yl]thiazol-2-ylmethoxy}benzoic acid] | < 100 | > 1000 |  |  |  |
| Cc1ccnc(Nc2cccc(-c3cnc(N4CCN(S(C)(=O)=O)CC4)s3)n2)c1 [Compound A-412] | 100 to 1000 | 100 to 1000 |  |  |  |
| Cc1ccnc(Nc2cccc(-c3ccc(C(=O)N4CCC(O)CC4)s3)n2)c1 [Compound B-79] |  |  |  |  | IC50 [1, 4]: 100 to 1000 nM; IC50 [2, 5]: 100 to 1000 nM |
| CC(=O)O[C@@H](c1ccccc1)c1ncc(-c2cccc(Nc3cc(C)ccn3)n2)s1 [Compound A-318] |  |  | 100 to 1000 | > 1000 |  |
| Cc1ccnc(Nc2cccc(-c3cnc([C@@H]4COC(=O)N4CC(=O)N(C)C)s3)n2)c1 [Compound A-408] | > 1000 | > 1000 |  |  |  |
| Cc1ccnc(Nc2cccc(-c3cnc(C4CCN(C(=O)N5CCC(=O)CC5)CC4)s3)n2)c1 [Compound A-250] |  |  | 100 to 1000 |  | IC50 ([2]; Homo sapiens, anti-hIgE stimulation, β-Hexosaminidase index, average): 100 to 1000 nM |
| Cc1ccnc(Nc2cccc(-c3cnc(N4CCCC(COCC(=O)O)C4)s3)n2)c1 (stereo not shown) [Compound A-497, (1-{5-[6-(4-methylpyridin-2-ylamino)pyridin-2-yl]thiazol-2-yl}piperidin-3-ylmethoxy)acetic acid dihydrochloride] | < 100 | > 1000 |  |  |  |
| CC(=O)OC(Cc1ccc(O)cc1)c1ncc(-c2cccc(Nc3cc(C)ccn3)n2)s1 (stereo not shown) [Compound A-366] |  |  | 100 to 1000 | 100 to 1000 |  |
| COc1ccc(C[C@H](NC(C)=O)c2ncc(-c3cccc(Nc4cc(C)ccn4)n3)s2)cc1 [Compound A-136] |  |  | 100 to 1000 | > 1000 |  |
| Cc1ccnc(Nc2cccc(-c3cnc(C4CCN(CCO)CC4)s3)n2)c1 [Compound A-189] |  |  | 100 to 1000 | 100 to 1000 |  |
| CC(=O)N[C@H](c1ccc(OCc2ccccc2)cc1)c1ncc(-c2cccc(Nc3cc(C)ccn3)n2)s1 [Compound A-160] |  |  | 100 to 1000 | > 1000 |  |
| CC(=O)Nc1ccc(-c2cccc(Nc3cc(C)ccn3)n2)s1 [Compound B-10, N-{5-[6-(4-methylpyridin-2-ylamino)pyridin-2-yl]thiophen-2-yl}acetamide] |  |  |  |  | IC50 [1, 4]: < 100 nM; IC50 [2, 5]: 100 to 1000 nM |
| CCC(O)c1ccc(-c2cccc(Nc3cc(C)ccn3)n2)s1 (stereo not shown) [Compound B-47] |  |  |  |  | IC50 [1, 4]: 100 to 1000 nM; IC50 [2, 5]: 100 to 1000 nM |
| Cc1ccnc(Nc2cccc(-c3cnc([C@H]4CC[C@H](C(N)=O)CC4)s3)n2)c1 [Compound A-111, trans-4-{5-[6-(4-methylpyridin-2-ylamino)pyridin-2-yl]thiazol-2-yl}cyclohexanecarboxamide] |  |  | < 100 | 100 to 1000 |  |
| Cc1ccnc(Nc2cccc(-c3cnc(CNCC4(O)CCCCC4)s3)n2)c1 [Compound A-196] |  |  | 100 to 1000 | 100 to 1000 |  |
| CC(=O)NCCCC[C@H](NC(C)=O)c1ncc(-c2cccc(Nc3cc(C)ccn3)n2)s1 [Compound A-64] |  |  | 100 to 1000 | 100 to 1000 |  |
| COC(=O)CCN(Cc1ncc(-c2cccc(Nc3cc(C)ccn3)n2)s1)C(C)=O [Compound A-164] |  |  | 100 to 1000 | > 1000 |  |
| Cc1ccnc(Nc2cccc(-c3ccc(C4=NC(C)(C)CO4)s3)n2)c1 [Compound B-39] |  |  |  |  | IC50 [1, 4]: 100 to 1000 nM; IC50 [2, 5]: > 1000 nM |
| Cc1ccnc(Nc2cccc(-c3cnc(N4CCN(S(N)(=O)=O)CC4)s3)n2)c1 [Compound A-421, 4-{5-[6-(4-methylpyridin-2-ylamino)pyridin-2-yl]thiazol-2-yl}piperazine-1-sulfonamide] | < 100 | 100 to 1000 |  |  |  |
| Cc1ccnc(Nc2cccc(-c3cnc(N4CCC[C@@H](C(N)=O)C4)s3)n2)c1 [Compound A-533, (R)-1-{5-[6-(4-methylpyridin-2-ylamino)pyridin-2-yl]thiazol-2-yl}piperidine-3-carboxamide] | < 100 | 100 to 1000 |  |  |  |
